Data published in patent US20250326799A1, “AGENTS INDUCING VASCULARISATION” (Coegin Pharma AB, priority 2022, published 2025).

Assays:
[1] = tested on: human umbilical vascular endothelial cells (HUVECs); assay: In vitro scratch wound closure, HUVECs; assay type: cell-based; settings: for wound closure rate (scratch injury): HUVECs, increasing concentration of peptide
Protocol: (§1) The impact of FOL-026 peptide on human umbilical vascular endothelial cells (HUVECs) proliferation (FIG. 18a) and apoptosis (FIG. 18c) induced with low-oxygen condition was determined by BrdU uptake (n=8-9 per group) and active caspase-3/-7 (n=7-10 per group) separately. The ROS level (FIG. 18b) activated by 50 ug/ml oxidized Low-density Lipoprotein (oxLDL) for 2 hours in cells pre-incubated with FOL-026 peptides was assessed using H2O2 measurement (n=4-8 per group). Representative pictures of endothelial migration into an in vitro scratch injury were shown (FIG. 19a) and the wound closure rate (FIG. 19b) in HUVECs stimulated with increasing concentration of FOL-026 peptide was quantified by image J software (n=8-9 per group). Scale bar=150 um. Data are presented as means±SEM and acquired from 3 to 4 independent replicate tests. *P<0.05, **P<0.01, ****P<0.0001 by one-way ANOVA and Dunnett's post-hoc test.
The efficiency of small interfering RNA transfection for 48 hours in HUVECs was confirmed by qRT-PCR (n=4) (FIG. 22a). Effect of FOL-026 peptide stimulation on cell proliferation (FIG. 22b) and cell apoptosis at 0.1% oxygen (FIG. 22c) in HUVECs transfected with siRNA-NC or siNRP-1 was evaluated by BrdU incorporation (n=4-7 per group) and active caspase-3/-7 ((n=4-7 per group). Representative pictures of endothelial cells at 0 and 5 hours after scratch wounding are shown in 23a. The wound closure rate (FIG. 23b) of siRNA-NC/siNRP-1-transfected HUVECs stimulated with increasing concentration of FOL-026 peptide was quantified by image J software (n=9-12 per group). Scale bar=150 um. Data are presented as means±SEM and acquired from 3 to 4 independent replicate tests. *P<0.05, **P<0.01, ***P<0.001, ****P<0.0001 by Student's t test for A, two-way ANOVA followed with Sidak's and Dunnett's multiple comparisons test for B, C and E.
The effect of FOL-005 peptide on smooth muscle cell proliferation (FIG. 30a) was determined with BrdU incorporation in peptide-treated human coronary smooth muscle cells (HCASMCs). […]

[2] = tested on: Human umbilical cord endothelial cells (HUVECs); assay: Gene expression by PCR in endothelial cells; assay type: cell-based
[3] = tested on: human umbilical vascular endothelial cells (HUVECs); assay: Low-oxygen induced apoptosis, active caspase-3/-7, HUVECs; assay type: cell-based
Protocol: as §1
The efficiency of small interfering RNA transfection for 48 hours in HUVECs was confirmed by qRT-PCR (n=4) (FIG. 22a). […]

[4] = tested on: human coronary smooth muscle cells (HCASMCs); assay: Low-oxygen induced apoptosis, active caspase-3/-7, smooth muscle cells; assay type: cell-based
Protocol: (§2) The effect of FOL-026 peptide treatment on smooth muscle cell proliferation (FIG. 25a) and apoptosis (FIG. 25c) induced with low-oxygen condition was evaluated with the uptake of BrdU (n=10 per group) and active caspase-3/-7 (n=6-8 per group) separately. H2O2 measurement (FIG. 25b) of smooth muscle cells pre-incubated with FOL-26 peptides after 50 ug/ml oxidized Low-density Lipoprotein (oxLDL) stimulation for 2 hours (n=6-7 per group). Representative images of scratch wound assay in vitro are shown (FIG. 26a) and the ability of wound healing (FIG. 26b) in human coronary smooth muscle cells (HCASMCs) treated with FOL-026 peptides was measured by image J software (n=10 per group). Scale bar=150 um. Data are presented as means±SEM and acquired from 3 to 4 independent replicate tests. *P<0.05, **P<0.01, ***P<0.001, ****P<0.0001 by one-way ANOVA and Dunnett's post-hoc test.

[5] = Vessel density, CD31+ positive area; settings: in vivo
Protocol: Quantified measurement of total length (FIG. 20b), total master segments length (FIG. 20c), total branching length (FIG. 20d) and total segments length (FIG. 20e) were performed to evaluate angiogenesis in vitro (n=7 per group for FIG. 29 b-e). The quantification of vessel density was assessed with CD31+ positive area (FIG. 21a, n=13 per group). Western blot analysis of phosphorylated AKT (pAKT-T308), AKT, phosphorylated ERK1/2 (p-ERK1/2) and ERK1/2 in endothelial cells stimulated with FOL-26 peptides for 48 hours (FIG. 21b). Quantification of phosphorylation intensities normalized to respective total expressions (FIG. 21c-d, n=3 per group).

[6] = tested on: human coronary smooth muscle cells (HCASMCs); assay: H2O2 measurement after oxLDL, smooth muscle cells; assay type: cell-based; settings: smooth muscle cells pre-incubated with peptide; 50 ug/ml oxLDL for 2 hours
Protocol: as §2

[7] = tested on: human umbilical vascular endothelial cells (HUVECs); assay: ROS level (H2O2 measurement) after oxLDL, HUVECs; assay type: cell-based; settings: HUVECs pre-incubated with peptide; 50 ug/ml oxLDL for 2 hours
Protocol: as §1

Sequence	wound closure rate (scratch injury) [1]	VEGFR-2 gene expression ([2]; 10 nM)	TNF-α gene expression ([2]; 10 nM and 100 nM)	IL-6 gene expression ([2]; 10 nM, 100 nM, 1000 nM tested)	MMP3 gene expression ([2]; 10 nM, 100 nM, 1000 nM tested)	VEGF-A gene expression ([2]; 10 nM, 100 nM, 1000 nM tested)	c-Met gene expression ([2]; 10 nM, 100 nM, 1000 nM tested)	NRP-1 gene expression ([2]; 100 nM and 1000 nM)	MMP2 gene expression ([2]; 200 nM and 1000 nM)	VEGFR-2 gene expression ([2]; 1000 nM)	NRP-1 gene expression ([2]; lowest dose (10 nM))	wound closure rate after NRP-1 knock-down ([1]; siRNA-NC/siNRP-1-transfected HUVECs, increasing concentration, 5 hours)	cell apoptosis at 0.1% oxygen after NRP-1 knock-down (active caspase-3/-7) ([3]; HUVECs transfected with siRNA-NC or siNRP-1)	low oxygen induced apoptosis (active caspase-3/-7) ([3]; HUVECs, low-oxygen condition)	smooth muscle cell apoptosis induced with low-oxygen condition (active caspase-3/-7) [4]	vessel density (CD31+ positive area) [5]	ROS formation (H2O2 measurement) [6]	ROS levels induced by oxLDL (H2O2 measurement) [7]
VDTYDGDISVVYGLR [FOL-005]	accelerate HUVEC wound closure																	
VDTYDGGISVVYGLR [FOL-026]	accelerates HUVEC wound closure	reduced	reduced	no effect	no effect	no effect	reducing	inducing	induced	induced	reducing	positive effect on wound closure	blocks the effect	alleviates the effect of low oxygen induced apoptosis	inhibits apoptosis	increased vessel density	reduces ROS formation	reduce the amount of ROS levels
